Results taken from paper PMC7390679 (Bioorganic chemistry, 2020).
Where a name gives a salt, the structure may show the parent alone. Read-outs that look alike come from different tables or passages of the source.

Experiments:
CVB3 = assay: CPE antiviral assay, CVB3 in Vero C1008 cells; type: cell-based
EV-A71 Tainan/4643/98 = assay: CPE antiviral assay, EV-A71 Tainan/4643/98 in RD cells; type: cell-based; conditions: read-out: EC50 against EV-A71 Tainan
Vero C1008 cells = assay: Cytotoxicity in Vero C1008 cells, neutral red method; type: cell-based; conditions: read-out: CC50 in Vero C1008 cells
CVB3 2C protein = CVB3 2C protein (Coxsackievirus B3, UniProt P03313); assay: Differential scanning fluorimetry; type: binding; conditions: 1 mM compound, 4.5 μM 2C, DSF
RD cells = assay: Cytotoxicity in RD cells, neutral red method; conditions: read-out: CC50 in RD cells, mean ± SD of three repeats
[1] = Enterovirus B, CVB3, Vero C1008, read-out: EC50 against CVB3
[2] = read-out: EC50 against CVB3, Vero C1008 cells, CPE assay

Sequence of CVB3 2C protein (P03313 1101-1429): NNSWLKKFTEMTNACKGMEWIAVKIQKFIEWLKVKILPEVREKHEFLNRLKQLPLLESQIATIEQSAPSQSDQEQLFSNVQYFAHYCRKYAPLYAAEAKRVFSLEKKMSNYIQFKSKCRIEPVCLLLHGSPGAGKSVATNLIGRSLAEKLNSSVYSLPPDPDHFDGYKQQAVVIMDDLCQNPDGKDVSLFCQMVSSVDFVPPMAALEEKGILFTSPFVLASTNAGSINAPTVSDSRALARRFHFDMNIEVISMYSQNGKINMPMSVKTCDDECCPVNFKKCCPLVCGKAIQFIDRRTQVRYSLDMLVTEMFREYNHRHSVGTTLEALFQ

Row | Structure (SMILES) | EC50 (CVB3; [1]) [µM] | EC50 (EV-A71 Tainan/4643/98; Enterovirus A, EVA71, RD) [µM] | CC50 (Vero C1008 cells) [µM] | EC50 (CVB3; [2]) [µM] | Tm shift of CVB3 2C protein (CVB3 2C protein) [°C] | EC50 (EV-A71 Tainan/4643/98; RD cells, CPE assay) [µM] | CC50 (RD cells) [µM]
1 | CCCCOc1cc(C(=O)NCCN(CC)CC)c2ccccc2n1 [dibucaine] | 1.3 | > 10 | – | – | – | – | –
2 | CNCCC(Oc1ccc(C(F)(F)F)cc1)c1ccccc1 (stereo not drawn) [fluoxetine] | – | – | 11 | – | – | – | –
3 | COc1ccc(CC(C)NCC(O)c2ccc(O)c(NC=O)c2)cc1 (stereo not drawn) [formoterol] | 9.9 | > 100 | > 300 | – | – | – | –
4 | N=C(N)N [guanidine] | – | – | > 3000 | 224 | 1.77 | 902 | > 1000
5 | Cc1ccc2c(c1)c1c3n2CCNC3CCC1 (stereo not drawn) [pirlindole mesylate] | – | – | 40.5 | 3.6 | – | > 20 | 19
